Converted amounts (≈) assume the structure as drawn.
Assays:
HSV-1 = assay: HSV Antiviral (ELISA) assay; assay type: cell-based; details: HSV-1 in Vero cells
Method in brief: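 Replication measured as glycoprotein D signal in fixed cells: anti-gD antibody plus β-galactosidase-linked secondary, fluorogenic substrate read at 365/450 nm. Vero cells (2% FBS DMEM) received compound 30 min pre-infection, HSV-1 MOI 0.006, ~24 h incubation; IC50 relative to no-compound fluorescence.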

[1] = test system: HCMV recombinant mutant virus (RV145); assay: HCMV microtiter plate assay (beta-glucuronidase reporter); assay type: cell-based, Human Cytomegalovirus; details: HCMV in human foreskin fibroblasts
Method in brief: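 Replication was read out as virus-encoded β-glucuronidase activity, measured with a chromogenic or fluorogenic glucuronide substrate in cell lysates at 96 h post-infection. Infection of human foreskin fibroblasts with RV145 took place with compound present. IC50 was derived from a range of inhibitor amounts.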

VZV strain Ellen = assay: VZV Antiviral (ELISA) assay; assay type: cell-based; details: VZV strain Ellen in HFF cells
Method in brief: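 Low-MOI (<0.1) Ellen infection of HFF overnight; cell mix plated 3.5×10^4/well with compound, DMEM + 2% FBS, 3 d, 37° C, 5% CO2. Fix, anti-gpII mAb ELISA, MUG substrate, fluorescence. IC50 vs compound-free signal.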

Structure (SMILES) | IC50 (ug/ml) HSV (HSV-1) [µg/mL] | IC50 (ug/ml) HCMV [1] [µg/mL] | IC50 (ug/ml) VZV (VZV strain Ellen) [µg/mL]
O=C(Nc1ccc(NC(=S)NCCc2ccc(F)cc2)cc1)c1csnn1 [Example 555] | >10 | 0.008 (≈ 0.0199 µM) | 4 (≈ 9.96 µM)
CCC(C)Cc1cc(NC(=S)Nc2ccc(NC(=O)c3csnn3)cc2)cc(C(F)(F)F)c1 (stereo not drawn) [Example 556] | >10 | 0.006 (≈ 0.0122 µM) | >7.5
CC(C)Cc1cc(NC(=S)Nc2ccc(NC(=O)c3csnn3)cc2)cc(C(F)(F)F)c1 [Example 557] | >10 | 0.006 (≈ 0.0125 µM) | >10
CN1CCN(c2cc(NC(=S)Nc3ccc(NC(=O)c4csnn4)cc3)cc(C(F)(F)F)c2)CC1 [Example 558] | 7 (≈ 13.4 µM) | 0.05 (≈ 0.0959 µM) | >10
O=C(Nc1ccc(NC(=S)Nc2cc(N3CCOCC3)cc(C(F)(F)F)c2)cc1)c1csnn1 [Example 559] | >10 | 0.012 (≈ 0.0236 µM) | >10
O=C(Nc1ccc(NC(=S)Nc2cc(N3CCCC3)cc(C(F)(F)F)c2)cc1)c1csnn1 [Example 560] | >10 | 0.008 (≈ 0.0162 µM) | >10
O=C(Nc1ccc(NC(=S)NCCc2ccc(F)cc2)cc1)c1ccco1 [Example 561] | >10 | 0.05 (≈ 0.13 µM) | 8 (≈ 20.9 µM)
O=C(Nc1ccc(NC(=S)NCCc2cccc(Cl)c2)cc1)c1csnn1 [Example 562] | >10 | 0.004 (≈ 0.00957 µM) | 8 (≈ 19.1 µM)
O=C(Nc1ccc(NC(=S)NCCc2cccc(Cl)c2)cc1)c1ccco1 [Example 564] | >10 | 0.027 (≈ 0.0675 µM) | 5 (≈ 12.5 µM)
CC(NC(=S)Nc1ccc(NC(=O)c2csnn2)cc1)c1ccc(F)cc1 (stereo not drawn) [Example 565] | >10 | 0.01 (≈ 0.0249 µM) | 0.22 (≈ 0.548 µM)
CC(NC(=S)Nc1ccc(NC(=O)c2csnn2)cc1)c1ccccc1 (stereo not drawn) [Example 588] | >10 | 0.03 (≈ 0.0782 µM) | 0.36 (≈ 0.939 µM)
CC(NC(=S)Nc1ccc(NC(=O)c2ccco2)cc1)c1ccccc1 (stereo not drawn) [Example 590] | >10 | 0.12 (≈ 0.328 µM) | 1 (≈ 2.74 µM)
CC(NC(=S)Nc1ccc(NC(=O)c2ccco2)cc1)c1ccc(F)cc1 (stereo not drawn) [Example 592] | >10 | 0.049 (≈ 0.128 µM) | 2 (≈ 5.22 µM)
CC(C)CN(C)c1cc(NC(=S)Nc2ccc(NC(=O)c3csnn3)cc2)cc(C(F)(F)F)c1 [Example 594] | >10 | 0.011 (≈ 0.0216 µM) | >10
O=C(Nc1ccc(NC(=S)Nc2cc(N3CCC(O)C3)cc(C(F)(F)F)c2)cc1)c1csnn1 (stereo not drawn) [Example 595] | >10 | 0.022 (≈ 0.0433 µM) | 3 (≈ 5.9 µM)
CCCCN(C)c1cc(NC(=S)Nc2ccc(NC(=O)c3csnn3)cc2)cc(C(F)(F)F)c1 [Example 597] | >10 | 0.008 (≈ 0.0157 µM) | >10
O=C(Nc1ccc(NC(=S)NCCc2cc(C(F)(F)F)cc(C(F)(F)F)c2)cc1)c1csnn1 [Example 599] | >10 | 0.005 (≈ 0.00962 µM) | >10
O=C(Nc1ccc(NC(=S)Nc2ccc(F)c(C(F)(F)F)c2)cc1)c1csnn1 [Example 600] | >10 | 0.012 (≈ 0.0272 µM) | >10
O=C(Nc1ccc(NC(=S)NCc2ccc(N3CCCCC3)c(C(F)(F)F)c2)cc1)c1csnn1 [Example 601] | >10 | 0.0011 (≈ 0.00211 µM) | >10
CN(C)c1ccc(CNC(=S)Nc2ccc(NC(=O)c3csnn3)cc2)cc1C(F)(F)F [Example 602] | >10 | 0.0015 (≈ 0.00312 µM) | >10
Nc1ccc(CCNC(=S)Nc2ccc(NC(=O)c3ccco3)cc2)cc1 [Example 603] | >10 | >0.5 | >10
O=C(Nc1ccc(NC(=S)NCCc2ccc(Br)cc2)cc1)c1ccco1 [Example 604] | >10 | 0.025 (≈ 0.0563 µM) | 10 (≈ 22.5 µM)
Cc1ccc(CCNC(=S)Nc2ccc(NC(=O)c3ccco3)cc2)cc1 [Example 605] | >10 | 0.062 (≈ 0.163 µM) | 10 (≈ 26.4 µM)
O=C(Nc1ccc(NC(=S)NCCc2ccc(Br)cc2)cc1)c1csnn1 [Example 606] | >10 | 0.0023 (≈ 0.00497 µM) | >10
COc1cccc(CCNC(=S)Nc2ccc(NC(=O)c3ccco3)cc2)c1 [Example 607] | 8 (≈ 20.2 µM) | 0.09 (≈ 0.228 µM) | >10
O=C(Nc1ccc(NC(=S)NCCOc2ccccc2)cc1)c1ccco1 [Example 626] | 10 (≈ 26.2 µM) | 0.07 (≈ 0.184 µM) | >10
O=C(Nc1ccc(NC(=S)NCCOc2ccccc2)cc1)c1csnn1 [Example 627] | 10 (≈ 25 µM) | 0.014 (≈ 0.035 µM) | >10
O=C(Nc1ccc(CNC(=S)Nc2ccc(Cl)c(Cl)c2)cc1)c1csnn1 [Example 630] | >10 | 0.4 (≈ 0.912 µM) | 4 (≈ 9.12 µM)
O=C(Nc1ccc(CNC(=S)Nc2ccc(Cl)c(C(F)(F)F)c2)cc1)c1csnn1 [Example 631] | 6 (≈ 12.7 µM) | 0.15 (≈ 0.318 µM) | 6 (≈ 12.7 µM)
O=C(Nc1ccc(CNC(=S)Nc2cc(Cl)cc(Cl)c2)cc1)c1csnn1 [Example 635] | >10 | 0.15 (≈ 0.342 µM) | 4 (≈ 9.12 µM)
